Where two headings read alike, the source gives them in different places.
Test system: HT-29 (human) cancer cell line
Assay: Cell proliferation inhibitory effect (MTT assay) on cultured cancer cell line HT-29
Assay type: cell-based
Settings: HT-29 cells; for IC50: incubation at 37° C. for three days, MTT assay, read-out: CPI50 (concentration required for attaining 50% CPI, percent cell proliferation inhibition)
Experimental: A cultured cancer cell line (HT-29 (human)) was inoculated into a 96-well plate (1×10^4 cells/100 μL/well), and subsequently the GlcNAc-cholestanol-compound-containing liposomal formulation or cyclodextrin inclusion complexation prepared in Example 1 was added to the 96-well plate, followed by incubation at 37° C. for three days. Thereafter, the MTT assay was performed, and the number of cells was determined. Percent cell proliferation inhibition was obtained by use of the below-described formula.
Percent cell proliferation inhibition (percent CPI) (%)=(1 −OD of treated cells/OD of non-treated cells)×100 [E1]
OD of treated cells and OD of non-treated cells were measured at 450 nm and 650 nm, respectively (according to the MTT assay).

[1] = Cyclodextrin inclusion complexation

Structure (SMILES)	IC50 [1]	IC50 (Liposomal formulation)	cell proliferation inhibitory effect (in words) (liposomal formulation or cyclodextrin inclusion complexation, three days)
CC(=O)N[C@H]1[C@H](O[C@H]2[C@@H](O)[C@@H](CO)O[C@@H](O[C@H]3CC[C@@]4(C)[C@@H](CC[C@@H]5[C@@H]4CC[C@]4(C)[C@@H]([C@H](C)CCCC(C)C)CC[C@@H]54)C3)[C@@H]2O)O[C@H](CO)[C@@H](O)[C@@H]1O [GlcNAcGalChol, GlcNAcβ1,3Galβ-cholestanol]	15.9 µM	10.2 µM	–
CC(=O)N[C@H]1[C@H](O[C@H]2CC[C@@]3(C)[C@@H](CC[C@@H]4[C@@H]3CC[C@]3(C)[C@@H]([C@H](C)CCCC(C)C)CC[C@@H]43)C2)O[C@H](CO)[C@@H](O)[C@@H]1O [GlcNacChol, 5-α-cholestan-3β-yl-2-acetamido-2-deoxy-β-D-glucopyranoside]	8.8 µM	10.4 µM	strong cell proliferation inhibitory effect
CC(C)CCC[C@@H](C)[C@H]1CC[C@H]2[C@@H]3CC[C@H]4C[C@@H](O)CC[C@]4(C)[C@H]3CC[C@]12C [Chol, cholestanol]	> 1000 µM	354 µM	–
CC(C)CCC[C@@H](C)[C@H]1CC[C@H]2[C@@H]3CCC4CC(OC5O[C@H](CO)[C@H](O)[C@H](O)[C@H]5O)CC[C@]4(C)[C@H]3CC[C@]12C (stereo partly drawn) [GalChol, Galp-cholestanol]	37.4 µM	12.7 µM	–
